According to PMC4710522, “A Novel Triazolopyridine-Based Spleen Tyrosine Kinase Inhibitor That Arrests Joint Inflammation” (PLoS ONE, 2016):

What was measured:
[1] = system: rat collagen-induced arthritis model; experiment: rat collagen-induced arthritis (CIA) model, paw swelling; type: in vivo; settings: for inhibition of paw swelling: 8 days
Description: Female Lewis rats (150 – 170g; Charles River Laboratories) were house standard shoebox cages, fed Harlan-Tekald diet and water ad libitum and maintained on a 12h light/dark cycle. For induction of arthritis rats were anesthetized with isofluorane and their entire dorsal area shaved. Rats were injected (intradermal) with 100 μl of equal volumes of collagen (Chrondrex, Redmond, WA) and IFA (Sigma Chemicals, St. Louis, MO) emulsion in 10 sites across the dorsal region. At disease onset 11 days following immunization animals were randomized into groups based on their ankle measurements and test article administration was initiated. Rats were dosed orally with vehicle (20% Captisol®), Indomethacin (Sigma Chemicals, St. Louis, MO, 2mg/kg) or CC-509 (15, 25mg/kg QD or 15mg/kg BID) in a dose volume of 5ml/kg. […] On the last day of the study animals were split into 2 cohorts and bleed twice via tail bleed under isofluorane anesthesia and a third terminal bleed following CO2 asphyxiation to obtain a time course of plasma compound exposure at 30minutes, 1, 2, 4, 8 and 24h after the last dose of CC-509.
For the TEL-Syk assay, the intensity values for the 700 and 800 channel were exported as text files in ActivityBase (IDBS, Guildford, UK) to derive the ratios that reflect kinase activity. For LAD2 experiments, enzyme activity values were exported as text files into ActivityBase to calculate “percent release” according to the formula: 100* supernatant OD405/ (supernatant OD405 + (pellet OD405*pellet dilution factor)). For the basophil and B-cells assays, flow cytometry data was exported from the FACS Array and processed using FloJo software package (TreeStar, Inc., Ashland, Oregon). For the JAK2 HEL and Ramos NFAT β-lactamase assays, the fluorescence values obtained at 460 nm and 530 nm were exported into ActivityBase to calculate response ratios. For the neutrophil, macrophage, KDR, and JAK1/3 assays, raw values were exported into ActivityBase to calculate percent inhibition. All IC50 calculations were generated using XLfit (IDBS, Guildford, UK) algorithm 205 within Excel. For PCA, the OD from the saline injected site was subtracted from the OD from the anti-DNP IgE injected site. Evans blue dye extravasation was expressed as mean ± SEM and % inhibition for the test article groups was normalized to the cromolyn positive control. For the CIA model paw measurements (left and right ankle diameter) were taken for each individual animal and averaged. The mean data from each group was plotted and either the AUC(day 11–18) or % inhibition on day 18 was calculated. Data is expressed as mean ± SEM of each group with n = 6–12. Statistical analysis was performed with Prism Graphpad using one-way ANOVA followed by Dunnett’s comparison using the vehicle group as the control or for measurements over time a 2 way ANOVA followed by a Dunnett’s multiple comparison test. Statistical significance was deemed as * = p<0.05, **p<0.01, ***p<0.001 and p<0.0001.

5-lipoxygenase = biological target: T1, 5-lipoxygenase (Homo sapiens, UniProt P09917); experiment: non-kinase enzyme panel (CEREP); type: biochemical
T1 construct: CEREP (contract assay)
Description: (§1) Syk kinase mode of inhibition studies, including parameters described in Fig 1, were conducted on the LC3000 platform by Caliper Life Sciences (Hopkinton, MA) according to standard protocols developed by the supplier. […] Non-kinase enzyme assays and GPCR, ion channel, and transporter binding assays were run by CEREP (France). Non-GLP manual patch clamp hERG assays were run by ChanTest (Cleveland, Ohio). Vivid® Assay kits (Life Technologies) were used to measure the cytochrome P450 inhibition of the compound against CYP3A, CYP2C9, CYP2C19, CYP2D6, and CYP1A2, as described.

PDE5 = biological target: T2, PDE5 (Homo sapiens, UniProt O76074); experiment: non-kinase enzyme panel (CEREP); type: biochemical
T2 construct: purchased CEREP (contract assay)
Description: as §1

PDE2A = biological target: T3, PDE2A (Homo sapiens, UniProt O00408); experiment: non-kinase enzyme panel (CEREP); type: biochemical
T3 construct: purchased CEREP (contract assay)
Description: as §1

CK1-gamma3_h = biological target: T4, CK1-gamma3_h (Homo sapiens, UniProt Q9Y6M4); experiment: SelectScreen kinase assay; type: biochemical; settings: KM ATP, read-out: % control
T4 construct: purchased Life Technologies (Invitrogen) SelectScreen, Z'-LYTE / Adapta

Aurora A = biological target: T5, Aurora A (Homo sapiens, UniProt O14965); experiment: Aurora A IMAP TR-FRET assay; type: biochemical; settings: in-house, mean ± SD
T5 construct: purchased Millipore 14-511

[2] = system: Tel-Syk expressing BaF3 cells; experiment: Tel-Syk BaF3 viability assay (growth factor-independent growth); type: cell-based, murine; settings: Mus musculus; Tel-Syk BaF3, absence of IL-3
Description: HEK293 T-REx™ (Life Technologies, Grand Island, NY) stably transfected with human TEL-Syk (cloned as described prior section DNA constructs) were plated on black poly-D-lysine coated 96-well plates (BD Biosciences, San Diego, CA) in culture media containing tetracycline-free fetal bovine serum (Clontech, MountainView, CA) for 16 hours in a tissue culture incubator. Tel-Syk expression was induced for 6 hours in fresh growth media containing 1 μg/ml tetracycline (Sigma Chemicals, St. Louis, MO). Plates were preincubated with CC-509 for 90 minutes, fixed immediately with 4% formaldehyde in 1X PBS for 20 min at room temperature, and washed/permeabilized 5-times with PBS containing 0.1% Triton X-100. Plates were blocked with Odyssey Blocking Buffer for 90 minutes at room temperature and incubated overnight at 4°C on a rotating platform with rabbit phospho-Syk (1:1000) and mouse V5 (1:2500) primary antibodies diluted in Odyssey Blocking Buffer. […] Viability of BaF/3 cells expressing Tel-Syk grown in the absence of murine IL-3 was measured using Cell-Titer Glo reagent (Promega, Madison, WI), as described by supplier.

T1 sequence (P09917 whole entry, species assumed): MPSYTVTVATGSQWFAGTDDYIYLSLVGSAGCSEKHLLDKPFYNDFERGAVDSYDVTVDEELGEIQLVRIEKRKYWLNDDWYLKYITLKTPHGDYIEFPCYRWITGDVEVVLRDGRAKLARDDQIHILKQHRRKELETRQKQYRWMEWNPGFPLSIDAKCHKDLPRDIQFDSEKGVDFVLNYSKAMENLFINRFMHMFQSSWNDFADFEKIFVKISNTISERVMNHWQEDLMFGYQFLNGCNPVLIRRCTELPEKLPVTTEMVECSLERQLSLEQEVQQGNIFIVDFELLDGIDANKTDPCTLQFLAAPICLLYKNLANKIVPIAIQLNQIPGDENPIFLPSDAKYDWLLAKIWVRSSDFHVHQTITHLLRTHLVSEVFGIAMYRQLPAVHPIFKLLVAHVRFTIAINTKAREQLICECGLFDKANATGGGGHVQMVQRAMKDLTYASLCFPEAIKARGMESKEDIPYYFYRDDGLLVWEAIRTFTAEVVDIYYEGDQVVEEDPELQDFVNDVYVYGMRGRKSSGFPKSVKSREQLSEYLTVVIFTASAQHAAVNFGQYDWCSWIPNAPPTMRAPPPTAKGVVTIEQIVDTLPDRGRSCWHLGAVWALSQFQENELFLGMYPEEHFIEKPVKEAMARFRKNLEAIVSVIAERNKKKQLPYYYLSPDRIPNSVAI
T4 sequence (Q9Y6M4 whole entry): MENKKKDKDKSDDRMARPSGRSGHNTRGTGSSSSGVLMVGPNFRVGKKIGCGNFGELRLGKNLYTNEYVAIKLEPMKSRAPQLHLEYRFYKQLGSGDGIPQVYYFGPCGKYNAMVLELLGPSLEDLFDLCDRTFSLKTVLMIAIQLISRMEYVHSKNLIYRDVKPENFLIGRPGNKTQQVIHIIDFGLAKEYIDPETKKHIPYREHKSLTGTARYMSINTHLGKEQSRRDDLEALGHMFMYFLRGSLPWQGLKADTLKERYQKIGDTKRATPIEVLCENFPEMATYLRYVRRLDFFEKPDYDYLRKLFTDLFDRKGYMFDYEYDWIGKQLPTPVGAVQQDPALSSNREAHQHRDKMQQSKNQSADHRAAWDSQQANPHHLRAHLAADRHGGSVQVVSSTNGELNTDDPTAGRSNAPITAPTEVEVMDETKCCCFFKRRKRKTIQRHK
T5 sequence (O14965 whole entry): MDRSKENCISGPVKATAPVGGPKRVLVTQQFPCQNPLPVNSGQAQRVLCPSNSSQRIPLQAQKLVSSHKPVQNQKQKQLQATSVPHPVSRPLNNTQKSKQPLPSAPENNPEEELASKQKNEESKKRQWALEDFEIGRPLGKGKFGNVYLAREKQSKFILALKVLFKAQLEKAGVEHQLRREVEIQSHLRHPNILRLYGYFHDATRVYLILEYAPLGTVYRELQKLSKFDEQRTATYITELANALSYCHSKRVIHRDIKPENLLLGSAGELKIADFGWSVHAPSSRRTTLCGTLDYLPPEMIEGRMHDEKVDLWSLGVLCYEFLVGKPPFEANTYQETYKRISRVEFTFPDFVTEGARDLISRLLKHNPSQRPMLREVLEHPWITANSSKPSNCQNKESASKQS
T3 sequence (O00408 whole entry, species assumed): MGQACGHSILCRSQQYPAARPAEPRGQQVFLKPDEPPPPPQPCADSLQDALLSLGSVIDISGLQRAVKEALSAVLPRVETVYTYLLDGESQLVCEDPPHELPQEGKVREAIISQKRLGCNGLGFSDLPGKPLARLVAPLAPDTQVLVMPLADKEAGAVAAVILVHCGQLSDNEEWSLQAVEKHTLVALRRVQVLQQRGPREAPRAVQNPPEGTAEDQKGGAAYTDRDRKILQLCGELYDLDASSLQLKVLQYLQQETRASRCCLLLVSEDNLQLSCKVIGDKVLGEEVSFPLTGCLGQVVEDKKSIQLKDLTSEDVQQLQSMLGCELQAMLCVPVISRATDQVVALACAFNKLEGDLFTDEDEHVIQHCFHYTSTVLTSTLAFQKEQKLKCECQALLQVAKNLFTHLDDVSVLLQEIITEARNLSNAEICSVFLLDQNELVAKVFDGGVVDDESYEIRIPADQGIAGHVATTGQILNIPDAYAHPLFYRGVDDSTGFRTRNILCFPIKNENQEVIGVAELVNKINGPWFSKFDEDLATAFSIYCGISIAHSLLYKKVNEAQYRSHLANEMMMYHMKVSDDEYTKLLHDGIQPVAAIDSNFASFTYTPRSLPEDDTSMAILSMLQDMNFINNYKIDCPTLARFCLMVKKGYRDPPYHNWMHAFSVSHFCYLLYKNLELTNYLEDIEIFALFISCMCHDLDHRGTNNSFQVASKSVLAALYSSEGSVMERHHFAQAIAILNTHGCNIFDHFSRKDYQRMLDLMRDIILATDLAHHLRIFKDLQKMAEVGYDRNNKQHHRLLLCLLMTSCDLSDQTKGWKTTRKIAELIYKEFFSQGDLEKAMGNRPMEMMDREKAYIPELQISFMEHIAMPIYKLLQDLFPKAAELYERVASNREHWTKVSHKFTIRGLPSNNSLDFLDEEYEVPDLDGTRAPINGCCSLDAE

In the case of `c1cc(CC2CCOCC2)n2nc(Nc3ccc4c(NC5CCOCC5)n[nH]c4c3)nc2c1` [CC-509, [3-(2H-3,4,5,6-tetrahydropyran-4-ylamino)(1H-indazol-6-yl)][5-(2H-3,4,5,6-tetrahydropyran-4-ylmethyl)(2H-1,2,4-triazolo[1,5-a]pyridin-2-yl)]amine], the “inhibition of paw swelling” value ([1]; 15 mg/kg b.i.d. oral, p<0.001) is reported as 72%, the “inhibition of paw swelling” value ([1]; 15 mg/kg q.d. oral, not significant) is reported as 32% and the “inhibition of paw swelling” value ([1]; 25 mg/kg q.d. oral, p<0.0001) is reported as 74%. For the same molecule, the ED50 ([1]; rat CIA model) was roughly 10 mg/kg, the inhibition at 10 µM (5-lipoxygenase) was 73% and the inhibition at 10 µM (PDE5) was 90%. For the same molecule, the inhibition at 10 µM (PDE2A) was 89%, the remaining activity at 3 µM (CK1-gamma3_h) was 50% and the IC50 (Aurora A) was 220 ± 50 nM. The IC50 [2] was 1610 ± 410 nM.
